What is called IC50 is the point on the concentration scale where inhibition reaches its midpoint.

Bounds are passed on as bounds.

The source of these data is patent publication US11098041B2 (Merck Patent GmbH, priority 2014, dated 2021).

In test [1] the target is BTK C481S (His-TEV-hsBTK(328-659)(C481S)) (Homo sapiens (Human), UniProt Q06187, C481S). As to the kind of experiment: Assay B: microfluidic off-chip mobility shift assay against BTK C481S enzyme. The format is biochemical. The conditions noted are these: BTK C481S mutant. An outline of the steps:
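Substrate-to-phosphopeptide conversion quantified by microfluidic mobility shift with laser-induced fluorescence; IC50 and efficacy from log[inhibitor] vs. % activity.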

Another test concerns the target full-length human BTK (Homo sapiens (Human), UniProt Q06187). As to the kind of experiment: Assay A: microfluidic off-chip mobility shift assay against BTK enzyme. The format is biochemical.
Test [2] deals with anti-IgM-induced expression of CD69 on CD19 positive cells (B cells) in human PBMCs. The experiment in a line: Assay C: PBMC IC50 assay (anti-IgM-induced CD69 expression). The format is cell-based. To be noted: anti-IgM stimulation. The method, then: Btk is critical for mediating the signalling of B cell antigen receptor (BCR) after anti-IgM stimulation. Based on this principle, a functional cell-based assay was established to determine the potency of compounds at inhibiting anti-IgM-induced expression of CD69, a downstream BCR signaling event, in freshly isolated human peripheral blood mononuclear cells (PBMCs). In the assay, a 90 μl PBMC suspension containing 2.5×10^5 cells was pre-treated with 10 μl of test compound at various concentrations for an hour, and then incubated overnight (approximately 16-18 hours) with 5 μl 420 μg/ml affiniPure F(ab′)2 fragment goat anti-human IgM Fc fragment per well (Dianova, Cat. No.: 109-006-129). After the incubation, the cells were washed and immunostained with an APC-labeled mouse anti-human CD69 (BD Biosciences; clone: FN50), a PerCP-Cy5.5 labelled mouse anti-human CD19 (BD Biosciences; clone: SJ25C1) and a FITC-labelled mouse anti-human CD3 (BD Biosciences; clone: HIT3a), and fixed for flow cytometric analysis of CD69 expression on CD19 positive cells (B cells). The percentage of CD69 expressing CD19 positive cells was plotted against the concentrations of test compounds to obtain a concentration response curve, and calculate an IC50 value as a measure of the potency of test compounds in the assay.

full-length human BTK, sequence (Q06187 whole entry): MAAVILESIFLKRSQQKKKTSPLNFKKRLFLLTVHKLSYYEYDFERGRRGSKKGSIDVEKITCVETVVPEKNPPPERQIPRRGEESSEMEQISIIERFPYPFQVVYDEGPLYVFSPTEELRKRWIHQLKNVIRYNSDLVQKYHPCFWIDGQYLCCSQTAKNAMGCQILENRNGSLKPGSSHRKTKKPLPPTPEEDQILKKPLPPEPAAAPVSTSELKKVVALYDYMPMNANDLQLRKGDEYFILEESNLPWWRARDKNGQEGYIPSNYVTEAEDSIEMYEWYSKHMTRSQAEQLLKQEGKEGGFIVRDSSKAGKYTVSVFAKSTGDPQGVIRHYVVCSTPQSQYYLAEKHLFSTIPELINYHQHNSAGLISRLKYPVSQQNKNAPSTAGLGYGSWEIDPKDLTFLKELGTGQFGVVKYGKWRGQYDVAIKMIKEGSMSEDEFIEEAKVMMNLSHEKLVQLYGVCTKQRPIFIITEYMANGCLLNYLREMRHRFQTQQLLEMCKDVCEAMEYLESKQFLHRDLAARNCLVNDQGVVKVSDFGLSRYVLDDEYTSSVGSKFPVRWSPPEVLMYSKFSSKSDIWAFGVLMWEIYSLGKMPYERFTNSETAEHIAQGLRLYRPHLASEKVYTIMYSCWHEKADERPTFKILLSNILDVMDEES
BTK C481S (His-TEV-hsBTK(328-659)(C481S)), sequence (Q06187 328-659 C481S): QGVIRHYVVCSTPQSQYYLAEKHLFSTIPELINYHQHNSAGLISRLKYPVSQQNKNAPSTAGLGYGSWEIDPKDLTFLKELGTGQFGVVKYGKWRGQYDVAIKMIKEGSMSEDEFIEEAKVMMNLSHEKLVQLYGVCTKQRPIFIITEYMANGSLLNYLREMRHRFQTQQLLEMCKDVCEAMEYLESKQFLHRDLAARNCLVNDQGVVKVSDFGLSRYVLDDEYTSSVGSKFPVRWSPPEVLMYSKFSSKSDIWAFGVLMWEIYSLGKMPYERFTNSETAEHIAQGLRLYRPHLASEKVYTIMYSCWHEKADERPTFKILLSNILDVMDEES

With `O=C1c2c(F)cc(C3CC3)cc2OCCN1c1cccc(-c2ccnc3[nH]c(-c4cccnc4)nc23)c1CO` [Example 2, 8-Cyclopropyl-6-fluoro-4-[2-(hydroxymethyl)-3-[2-(pyridin-3-yl)-3H-imidazo[4,5-b]pyridin-7-yl]phenyl]-2,3,4,5-tetrahydro-1,4-benzoxazepin-5-one], the values for the half-inhibitory concentration (IC50) (in test [1]; on full-length human BTK; in test [2]) were less than 100 nM, less than 100 nM and 1000 to 5000 nM, respectively.

For the molecule `Cn1cc(-c2nc3c(-c4cc(F)cc(N5CCn6c(cc7c6CC(C)(C)C7)C5=O)c4CO)ccnc3[nH]2)cn1` [Example 10, 2-(5-fluoro-2-(hydroxymethyl)-3-(2-(1-methyl-1H-pyrazol-4-yl)-3H-imidazo[4,5-b]pyridin-7-yl)phenyl)-7,7-dimethyl-2,3,4,6,7,8-hexahydro-1H-cyclopenta[4,5]pyrrolo[1,2-a]pyrazin-1-one], the 50% inhibitory concentration (IC50) (in test [1]; on full-length human BTK; in test [2]) was less than 100 nM in each case.

`Cn1cc(-c2nc3c(-c4ccnc(N5CCn6c(cc7c6CC(C)(C)C7)C5=O)c4CO)ccnc3[nH]2)cn1` [Example 11, 2-(3-(hydroxymethyl)-4-(2-(1-methyl-1H-pyrazol-4-yl)-3H-imidazo[4,5-b]pyridin-7-yl)pyridin-2-yl)-7,7-dimethyl-2,3,4,6,7,8-hexahydro-1H-cyclopenta[4,5]pyrrolo[1,2-a]pyrazin-1-one]: the concentration for half-maximal inhibition (IC50) in test [1] was less than 100 nM; on full-length human BTK, less than 100 nM; in test [2], 100 to 1000 nM.

On to `Cn1cc(-c2nc3c(-c4ccc(CNC(=O)CCCC(C)(C)C)c(F)c4)ccnc3[nH]2)cn1` [Example 14, 5,5-Dimethyl-hexanoic acid 2-fluoro-4-[2-(1-methyl-1H-pyrazol-4-yl)-3H-imidazo[4,5-b]pyridin-7-yl]-benzylamide], for which the results for the IC50 (in test [1]; on full-length human BTK; in test [2]) were less than 100 nM, less than 100 nM and 1000 to 5000 nM, respectively.

As to `Cn1cc(-c2nc3c(-c4ccc(CNC(=O)CCCC5CCCC5)c(F)c4)ccnc3[nH]2)cn1` [Example 16, 4-Cyclopentyl-N-{2-fluoro-4-[2-(1-methyl-1H-pyrazol-4-yl)-3H-imidazo[4,5-b]pyridin-7-yl]-benzyl}-butyramide], the results for the half-maximal inhibitory concentration (IC50) (in test [1]; on full-length human BTK; in test [2]) were less than 100 nM, less than 100 nM and more than 5000 nM, respectively.

As to `CC(C)(C)c1nc(C(=O)NCc2ccc(-c3ccnc4[nH]c(C5CC5)nc34)cc2F)no1` [Example 27, 5-tert-Butyl-[1,2,4]oxadiazole-3-carboxylic acid 4-(2-cyclopropyl-3H-imidazo[4,5-b]pyridin-7-yl)-2-fluoro-benzylamide], the 50% inhibitory concentration (IC50) in test [1] was less than 100 nM; at full-length human BTK it was less than 100 nM; in test [2], 1000 to 5000 nM.

As for `Cn1cc(-c2nc3c(-c4ccc(CN5CCOc6cc(C7CC7)cc(F)c6C5=O)c(F)c4)ccnc3[nH]2)cn1` [Example 34, 8-Cyclopropyl-6-fluoro-4-([2-fluoro-4-[2-(1-methyl-1H-pyrazol-4-yl)-3H-imidazo[4,5-b]pyridin-7-yl]phenyl]methyl)-2,3,4,5-tetrahydro-1,4-benzoxazepin-5-one], the IC50 in test [1] was less than 100 nM; on full-length human BTK, less than 100 nM; in test [2], 100 to 1000 nM.

Consider `CN1CCN(Cc2ccc(-c3nc4c(-c5cccc(N6CCOc7cc(C8CC8)cc(F)c7C6=O)c5CO)ccnc4[nH]3)nc2)CC1` [Example 35, 8-Cyclopropyl-6-fluoro-4-[2-(hydroxymethyl)-3-(2-[5-[(4-methylpiperazin-1-yl)methyl]pyridin-2-yl]-3H-imidazo[4,5-b]pyridin-7-yl)phenyl]-2,3,4,5-tetrahydro-1,4-benzoxazepin-5-one], for which the IC50 in test [1] was less than 100 nM; on full-length human BTK it was less than 100 nM; in test [2], 100 to 1000 nM.

As for `Cn1cc(-c2nc3c(-c4cc(F)cc(N5CCOc6cc(C7CC7)cc(F)c6C5=O)c4CO)ccnc3[nH]2)cn1` [Example 37, 8-Cyclopropyl-6-fluoro-4-[5-fluoro-2-(hydroxymethyl)-3-[2-(1-methyl-1H-pyrazol-4-yl)-3H-imidazo [4,5-b]pyridin-7-yl]phenyl]-2,3,4,5-tetrahydro-1,4-benzoxazepin-5-one], the results for the IC50 (in test [1]; on full-length human BTK; in test [2]) were less than 100 nM, less than 100 nM and 100 to 1000 nM, respectively.

As to `CN(C)c1ccc(-c2nc3c(-c4cccc(N5CCOc6cc(C7CC7)cc(F)c6C5=O)c4CO)ccnc3[nH]2)cc1` [Example 39, 8-Cyclopropyl-4-(3-[2-[4-(dimethylamino)phenyl]-3H-imidazo[4,5-b]pyridin-7-yl]-2-(hydroxymethyl)phenyl)-6-fluoro-2,3,4,5-tetrahydro-1,4-benzoxazepin-5-one], the IC50 is less than 100 nM in test [1], less than 100 nM on full-length human BTK and 1000 to 5000 nM in test [2].

Consider `COc1ccc(-c2nc3c(-c4ccc(CN5CCOc6cc(C7CC7)cc(F)c6C5=O)c(F)c4)ccnc3[nH]2)nc1` [Example 40, 8-Cyclopropyl-6-fluoro-4-([2-fluoro-4-[2-(5-methoxypyridin-2-yl)-3H-imidazo[4,5-b]pyridin-7-yl]phenyl]methyl)-2,3,4,5-tetrahydro-1,4-benzoxazepin-5-one], for which the concentration for half-maximal inhibition (IC50) in test [1] is less than 100 nM; at full-length human BTK it was less than 100 nM; in test [2] it was 100 to 1000 nM.

With `CN(C)c1ccc(-c2nc3c(-c4cccc(N5CCOc6cc(C7CC7)cc(F)c6C5=O)c4CO)ccnc3[nH]2)nc1` [Example 41, 8-cyclopropyl-4-(3-[2-[5-(dimethylamino)pyridin-2-yl]-3H-imidazo[4,5-b]pyridin-7-yl]-2-(hydroxymethyl)phenyl)-6-fluoro-2,3,4,5-tetrahydro-1,4-benzoxazepin-5-one], the IC50 in test [1] was less than 100 nM; at full-length human BTK it was less than 100 nM; in test [2] it was 1000 to 5000 nM.

For `Cn1cc(-c2nc3nccc(-c4cccc(N5CCOc6cc(C7CC7)cc(F)c6C5=O)c4CO)c3[nH]2)cn1` [Example 42, 8-Cyclopropyl-6-fluoro-4-[2-(hydroxymethyl)-3-[2-(1-methyl-1H-pyrazol-4-yl)-1H-imidazo[4,5-b]pyridine-7-yl]phenyl]-2,3,4,5-tetrahydro-1,4-benzoxazepin-5-one], the half-maximal inhibitory concentration (IC50) in test [1] is less than 100 nM; on full-length human BTK it was less than 100 nM; in test [2] it was 100 to 1000 nM.

On to `CN(C)C(=O)N1CC=C(c2nc3c(-c4ccc(CNC(=O)c5noc(C(C)(C)C)n5)c(F)c4)ccnc3[nH]2)CC1` [Example 143, 4-[7-(4-{[(5-tert-Butyl-[1,2,4]oxadiazole-3-carbonyl)-amino]-methyl}-3-fluoro-phenyl)-3H-imidazo[4,5-b]pyridin-2-yl]-3,6-dihydro-2H-pyridine-1-carboxylic Acid Dimethylamide], for which the 50% inhibitory concentration (IC50) (at full-length human BTK; in test [2]) was less than 100 nM throughout.

Regarding `C=CC(=O)Nc1ccccc1-c1nc2nccc(-c3ccc(CNC(=O)c4nc(C(C)(C)C)no4)c(F)c3)c2[nH]1` [Example 160, 3-tert-butyl-N-[(2-fluoro-4-[2-[2-(prop-2-enamido)phenyl]-3H-imidazo[4,5-b]pyridin-7-yl]phenyl)methyl]-1,2,4-oxadiazole-5-carboxamide], the half-maximal inhibitory concentration (IC50) (on full-length human BTK; in test [2]) was less than 100 nM throughout.

As to `COc1ccc(-c2nc3c(-c4ccc(CNC(=O)c5nc(C(C)(C)C)no5)c(F)c4)ccnc3[nH]2)nc1` [Example 161, 3-tert-butyl-N-([2-fluoro-4-[2-(5-methoxypyridin-2-yl)-3H-imidazo[4,5-b]pyridin-7-yl]phenyl]methyl)-1,2,4-oxadiazole-5-carboxamide], the IC50 (at full-length human BTK; in test [2]) was less than 100 nM each time.

As to `CC(C)(C)c1noc(C(=O)NCc2ccc(-c3ccnc4[nH]c(-c5ccc(CN6CCOCC6)cn5)nc34)cc2F)n1` [Example 162, 3-tert-butyl-N-[(2-fluoro-4-[2-[5-(morpholin-4-ylmethyl)pyridin-2-yl]-3H-imidazo[4,5-b]pyridin-7-yl]phenyl)methyl]-1,2,4-oxadiazole-5-carboxamide], the IC50 (on full-length human BTK; in test [2]) was less than 100 nM each time.

For `C=CC(=O)Nc1cccc(-c2nc3nccc(-c4ccc(CNC(=O)c5nc(C(C)(C)C)no5)c(F)c4)c3[nH]2)c1` [Example 163, 3-tert-butyl-N-[(2-fluoro-4-[2-[3-(prop-2-enamido)phenyl]-3H-imidazo[4,5-b]pyridin-7-yl]phenyl)methyl]-1,2,4-oxadiazole-5-carboxamide], the IC50 (on full-length human BTK; in test [2]) was less than 100 nM throughout.

On to `CC(C)(C)c1noc(C(=O)NCc2ccc(-c3ccnc4[nH]c(-c5ccc(N6CCC(F)(F)CC6)cn5)nc34)cc2F)n1` [Example 164, 3-tert-butyl-N-[(4-[2-[5-(4,4-difluoropiperidin-1-yl)pyridin-2-yl]-3H-imidazo[4,5-b]pyridin-7-yl]-2-fluorophenyl)methyl]-1,2,4-oxadiazole-5-carboxamide], for which the half-maximal inhibitory concentration (IC50) on full-length human BTK was less than 100 nM; in test [2], 100 to 1000 nM.
